In this assay the target is Glutamate receptor ionotropic, kainate 2 (Homo sapiens, UniProt Q13002).

Usually Ki stands for the equilibrium dissociation constant of an inhibitor or competing ligand from its target. Lower therefore signals a stronger hold on the target.

Chain of Glutamate receptor ionotropic, kainate 2 (Q13002 whole entry): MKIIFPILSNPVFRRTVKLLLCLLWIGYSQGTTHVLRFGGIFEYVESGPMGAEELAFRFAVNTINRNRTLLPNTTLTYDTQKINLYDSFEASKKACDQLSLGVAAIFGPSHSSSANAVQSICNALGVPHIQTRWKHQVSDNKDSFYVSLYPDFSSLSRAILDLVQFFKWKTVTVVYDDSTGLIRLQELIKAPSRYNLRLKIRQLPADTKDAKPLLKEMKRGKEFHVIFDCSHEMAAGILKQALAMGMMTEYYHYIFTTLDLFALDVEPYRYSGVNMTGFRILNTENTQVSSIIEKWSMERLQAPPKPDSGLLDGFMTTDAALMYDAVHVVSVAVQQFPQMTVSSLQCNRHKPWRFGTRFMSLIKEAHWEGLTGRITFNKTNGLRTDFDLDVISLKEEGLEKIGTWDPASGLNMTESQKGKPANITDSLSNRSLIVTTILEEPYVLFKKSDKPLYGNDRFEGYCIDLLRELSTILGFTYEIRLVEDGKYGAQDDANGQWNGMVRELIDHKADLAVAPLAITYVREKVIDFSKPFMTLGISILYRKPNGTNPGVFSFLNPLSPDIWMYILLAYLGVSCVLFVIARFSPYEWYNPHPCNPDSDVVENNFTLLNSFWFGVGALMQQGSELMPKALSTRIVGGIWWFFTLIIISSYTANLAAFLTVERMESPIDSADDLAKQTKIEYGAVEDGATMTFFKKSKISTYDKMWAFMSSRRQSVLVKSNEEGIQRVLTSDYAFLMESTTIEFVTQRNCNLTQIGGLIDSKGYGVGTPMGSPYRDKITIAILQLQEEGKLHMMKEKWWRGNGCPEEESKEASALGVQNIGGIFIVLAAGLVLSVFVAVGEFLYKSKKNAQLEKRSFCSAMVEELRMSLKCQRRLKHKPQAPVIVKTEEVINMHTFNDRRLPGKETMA

In turn, `O=C(O)c1ccc(C[C@H]2CC[C@H]3CN[C@H](C(=O)O)C[C@H]3C2)cc1` [LY 382884] yielded a Ki greater than 10 µM.

The values are drawn from BindingDB's records for doi:10.1038/46290 (University of Bristol, 1999).
